Experimental data taken from patent US20220289685A1, “ANTIMALARIAL HEXAHYDROPYRIMIDINE ANALOGUES” (UCB BIOPHARMA SRL, priority 2019, published 2022).
Where a name gives a salt, the structure may show the parent alone.

System: Plasmodium falciparum 3D7 strain
Experiment: P. falciparum 3D7 asexual blood stage assay (SYBR green readout)
Type: cell-based
Conditions: Plasmodium falciparum, 3D7, Erythrocyte, 72 h
Method in brief: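 P. falciparum 3D7 in A+ erythrocytes (5% haematocrit, 0.5% parasitaemia) exposed 72 h at 37 °C under 1% O2/3% CO2 to 20-point 1.5-fold titrations, 50,000–15 nM in 0.5% DMSO. SYBR green lysis overnight, fluorescence 485/528 nm; normalized to mefloquine and DMSO, EC50 from biphasic two-site fit.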

`C[C@@H]1C[C@H](N2C(=N)N[C@](C)(c3cccc(NC(=O)c4cnc5ccccc5c4)c3Cl)CC2=O)CCO1` (relative stereo) [Example 33, N-(2-Chloro-3-{(4S)-2-imino-4-methyl-1-[(2R*,4R*)-2-methyl-tetrahydropyran-4-yl]-6-oxo-hexahydropyrimidin-4-yl}phenyl)-quinoline-3-carboxamide trifluoroacetic acid salt] and `C[C@@H]1C[C@H](N2C(=N)N[C@](C)(c3cccc(NC(=O)c4cc5ccccc5nn4)c3Cl)CC2=O)CCO1` (relative stereo) [Example 46, N-(2-Chloro-3-{(4S)-2-imino-4-methyl-1-[(2R*,4R*)-2-methyl-tetrahydropyran-4-yl]-6-oxo-hexahydropyrimidin-4-yl]phenyl)-cinnoline-3-carboxamide trifluoroacetic acid salt] are within 1.5-fold of each other in IC50: 54 nM for the first, 41 nM for the second.

First: C[C@H]1C[C@@H](N2C(=N)N[C@](C)(c3cccc(NC(=O)c4cccc(C#N)c4)c3Cl)CC2=O)CCC1(F)F (relative stereo) [Example 26, N-(2-Chloro-3-{(4S)-1-[(1S*,3S*)-4,4-difluoro-3-methylcyclohexyl]-2-imino-4-methyl-6-oxohexahydro-pyrimidin-4-yl]phenyl)-3-cyano-benzamide trifluoroacetic acid salt]
Second: C[C@@H]1C[C@H](N2C(=N)N[C@](C)(c3cccc(NC(=O)c4cccc(Cl)c4)c3Cl)CC2=O)CCO1 (relative stereo) [Example 11, 3-Chloro-N-(2-chloro-3-{(4S)-2-imino-4-methyl-1-[(2R*,4R*)-2-methyltetrahydropyran-4-yl]-6-oxo-hexahydropyrimidin-4-yl]phenyl)-benzamide hydrochloride]
The IC50 of the first is 1.7-fold higher: 15 nM for the first, 9 nM for the second.

Compared with `C[C@@H]1C[C@H](N2C(=N)N[C@](C)(c3cccc(NC(=O)c4cncc(C5CC5)c4)c3Cl)CC2=O)CCO1` (relative stereo) [Example 104, N-(2-Chloro-3-{(4S)-2-imino-4-methyl-1-[(2R*,4R*)-2-methyl-tetrahydropyran-4-yl]-6-oxo-hexahydropyrimidin-4-yl}phenyl)-5-cyclopropylpyridine-3-carboxamide hydrochloride], `C[C@@H]1C[C@H](N2C(=N)N[C@](C)(c3cccc(NC(=O)c4cncc(F)c4)c3Cl)CC2=O)CCO1` (relative stereo) [Example 40, N-(2-Chloro-3-{(4S)-2-imino-4-methyl-1-[(2R*,4R*)-2-methyl-tetrahydropyran-4-yl]-6-oxo-hexahydropyrimidin-4-yl]phenyl)-5-fluoropyridine-3-carboxamide trifluoroacetic acid salt] is 1.8-fold higher in IC50: 19 nM for the first, 34 nM for the second.

First: C[C@@H]1C[C@H](N2C(=N)N[C@](C)(c3cccc(NC(=O)c4ccn(C)n4)c3Cl)CC2=O)CCO1 (relative stereo) [Example 8, N-(2-Chloro-3-{(4S)-2-imino-4-methyl-1-[(2R*,4R*)-2-methyl-tetrahydropyran-4-yl]-6-oxo-hexahydropyrimidin-4-yl}phenyl)-1-methylpyrazole-3-carboxamide hydrochloride]
Second: C[C@@H]1C[C@H](N2C(=N)N[C@](C)(c3cccc(NC(=O)c4cccnc4)c3Cl)CC2=O)CCO1 (relative stereo) [Example 7, N-(2-Chloro-3-{(4S)-2-imino-4-methyl-1-[(2R*,4R*)-2-methyl-tetrahydropyran-4-yl]-6-oxo-hexahydropyrimidin-4-yl}phenyl)-pyridine-3-carboxamide hydrochloride]
The IC50 of the first is 9-fold higher: 260 nM for the first, 29 nM for the second.

Going from `C[C@@H]1C[C@H](N2C(=N)N[C@](C)(c3cccc(NC(=O)c4nnc5ccccn45)c3Cl)CC2=O)CCO1` (relative stereo) [Example 62, N-(2-Chloro-3-{(4S)-2-imino-4-methyl-1-[(2R*,4R*)-2-methyl-tetrahydropyran-4-yl]-6-oxo-hexahydropyrimidin-4-yl]phenyl)-[1,2,4]triazolo[4,3-a]pyridine-3-carboxamide hydrochloride] to `C[C@@H]1C[C@H](N2C(=N)N[C@](C)(c3cccc(NC(=O)c4ccccc4S(C)(=O)=O)c3Cl)CC2=O)CCO1` (relative stereo) [Example 81, N-(2-Chloro-3-{(4S)-2-imino-4-methyl-1-[(2R*,4R*)-2-methyl-tetrahydropyran-4-yl]-6-oxo-hexahydropyrimidin-4-yl}phenyl)-2-(methylsulfonyl)benzamide trifluoroacetic acid salt], the IC50 rises from 23 nM to 182 nM (7.9-fold). The first is the more potent here.

Going from `C[C@@H]1C[C@H](N2C(=N)N[C@](C)(c3cccc(NC(=O)c4cccc(-n5ccnc5)c4)c3Cl)CC2=O)CCO1` (relative stereo) [Example 105, N-(2-Chloro-3-{(4S)-2-imino-4-methyl-1-[(2R*,4R*)-2-methyl-tetrahydropyran-4-yl]-6-oxo-hexahydropyrimidin-4-yl]phenyl)-3-(imidazol-1-yl)benzamide hydrochloride] to `C[C@@H]1C[C@H](N2C(=N)N[C@](C)(c3cccc(NC(=O)c4cccc(C(F)(F)F)c4)c3Cl)CC2=O)CCO1` (relative stereo) [Example 41, N-(2-Chloro-3-{(4S)-2-imino-4-methyl-1-[(2R*,4R*)-2-methyl-tetrahydropyran-4-yl]-6-oxo-hexahydropyrimidin-4-yl}phenyl)-3-(trifluoromethyl)benzamide trifluoroacetic acid salt], the IC50 falls from 44 nM to 15 nM (2.9-fold). The second is the more potent here.

Going from `C[C@@]1(c2cccc(NC(=O)c3ccccc3)c2Cl)CC(=O)N(C2CCOCC2)C(=N)N1` [Example 1, N-{2-Chloro-3-[(4S)-2-imino-4-methyl-6-oxo-1-(tetrahydropyran-4-yl)hexahydropyrimidin-4-yl]-phenyl]benzamide trifluoroacetic acid salt] to `C[C@@H]1C[C@H](N2C(=N)N[C@](C)(c3cccc(NC(=O)c4ccc(C5CC5)nc4)c3Cl)CC2=O)CCO1` (relative stereo) [Example 53, N-(2-Chloro-3-{(4S)-2-imino-4-methyl-1-[(2R*,4R*)-2-methyl-tetrahydropyran-4-yl]-6-oxo-hexahydropyrimidin-4-yl}phenyl)-6-cyclopropylpyridine-3-carboxamide hydrochloride], the IC50 rises from 227 nM to 630 nM (2.8-fold). The first is the more potent here.

Going from `COc1ccncc1C(=O)Nc1cccc([C@]2(C)CC(=O)N([C@@H]3CCO[C@H](C)C3)C(=N)N2)c1Cl` (relative stereo) [Example 45, N-(2-Chloro-3-{(4S)-2-imino-4-methyl-1-[(2R*,4R*)-2-methyl-tetrahydropyran-4-yl]-6-oxo-hexahydropyrimidin-4-yl]phenyl)-4-methoxypyridine-3-carboxamide trifluoroacetic acid salt] to `C[C@@H]1C[C@H](N2C(=N)N[C@](C)(c3cccc(NC(=O)c4cnccc4C(F)(F)F)c3Cl)CC2=O)CCO1` (relative stereo) [Example 56, N-(2-Chloro-3-{(4S)-2-imino-4-methyl-1-[(2R*,4R*)-2-methyl-tetrahydropyran-4-yl]-6-oxo-hexahydropyrimidin-4-yl}phenyl)-4-(trifluoromethyl)pyridine-3-carboxamide hydrochloride], the IC50 falls from 156 nM to 21 nM (7.4-fold).

Compared with `C[C@@H]1C[C@H](N2C(=N)N[C@](C)(c3cccc(NC(=O)c4cc(F)cc(C#N)c4)c3Cl)CC2=O)CCO1` (relative stereo) [Example 99, N-(2-Chloro-3-{(4S)-2-imino-4-methyl-1-[(2R*,4R*)-2-methyl-tetrahydropyran-4-yl]-6-oxo-hexahydropyrimidin-4-yl}phenyl)-3-cyano-5-fluorobenzamide hydrochloride], `C[C@@H]1C[C@H](N2C(=N)N[C@](C)(c3cccc(NC(=O)c4cccc(C#N)c4F)c3Cl)CC2=O)CCO1` (relative stereo) [Example 73, N-(2-Chloro-3-{(4S)-2-imino-4-methyl-1-[(2R*,4R*)-2-methyl-tetrahydropyran-4-yl]-6-oxo-hexahydropyrimidin-4-yl}phenyl)-3-cyano-2-fluorobenzamide hydrochloride] is 3-fold lower in IC50: 18 nM for the first, 6 nM for the second.

First: C[C@@H]1C[C@H](N2C(=N)N[C@](C)(c3cccc(NC(=O)c4cc(C#N)cn4C)c3Cl)CC2=O)CCO1 (relative stereo) [Example 113, N-(2-Chloro-3-{(4S)-2-imino-4-methyl-1-[(2R*,4R*)-2-methyl-tetrahydropyran-4-yl]-6-oxo-hexahydropyrimidin-4-yl}phenyl)-4-cyano-1-methylpyrrole-2-carboxamide trifluoroacetic acid salt]
Second: Cc1nonc1C(=O)Nc1cccc([C@]2(C)CC(=O)N([C@@H]3CCO[C@H](C)C3)C(=N)N2)c1Cl (relative stereo) [Example 17, N-(2-Chloro-3-{(4S)-2-imino-4-methyl-1-[(2R*,4R*)-2-methyl-tetrahydropyran-4-yl]-6-oxo-hexahydropyrimidin-4-yl}phenyl)-4-methyl-1,2,5-oxadiazole-3-carboxamide hydrochloride]
The IC50 of the first is 2.4-fold lower: 5 nM for the first, 12 nM for the second. The first is the more potent here.

Same assay, conditions: Plasmodium falciparum, Erythrocyte; P. falciparum 3D7 in human erythrocytes, 72 h incubation, SYBR green fluorescence; read-out: IC50

Going from `C[C@@H]1C[C@H](N2C(=N)N[C@](C)(c3cccc(NC(=O)c4nccn5ccnc45)c3Cl)CC2=O)CCO1` (relative stereo) [Example 48, N-(2-Chloro-3-{(4S)-2-imino-4-methyl-1-[(2R*,4R*)-2-methyl-tetrahydropyran-4-yl]-6-oxo-hexahydropyrimidin-4-yl}phenyl)-imidazo[1,2-alpyrazine-8-carboxamidetrifluoroacetic acid salt] to `C[C@@H]1C[C@H](N2C(=N)N[C@](C)(c3cccc(NC(=O)c4c(F)cc(F)cc4F)c3Cl)CC2=O)CCO1` (relative stereo) [Example 101, N-(2-Chloro-3-{(4S)-2-imino-4-methyl-1-[(2,R*,4R*)-2-methyl-tetrahydropyran-4-yl]-6-oxo-hexahydropyrimidin-4-yl]phenyl)-2,4,6-trifluorobenzamide hydrochloride], the IC50 rises from 55 nM to 85 nM (1.5-fold). The first is the more potent here.
